Assays:
Format in all cases: biochemical
[1] = biological target: T1, JAK2V617F (Homo sapiens, UniProt O60674, V617F); test: JAK2V617F microfluidic kinase assay (Caliper EZ Reader II, FAM labeled peptide substrate); details: JAK2V617F 2.5 nM, 1 mM ATP
T1 construct: purchased Carna Biosciences
Description: (§1) Compounds were tested against JAK1, JAK2, JAK2V617F and TYK2. Assay Formats: JAK activity was determined in the reaction buffer 50 mM HEPES, 0.01% Brij35, 10 mM MgCl2, 2 mM DTT by a microfluidic assay. The phosphorylation of a FAM labeled peptide substrate was monitored in the Caliper EZ Reader II (Perkin Elmer). The assay condition for each batch of enzyme (Carna Biosciences) was optimized to obtain 10% conversion rate of peptide substrate. The test compounds were dissolved in DMSO to a stock concentration of 10 mM. 3-fold serially diluted compounds with top concentration of 5 μM were pre-incubated with JAK1, JAK2, JAK2V617F or TYK2 at indicated concentrations for 10 min at ambient temperature. The final DMSO concentration of assay mixture was 1%. […] The reaction was stopped by adding 50 mM EDTA. […] The percent inhibition was calculated by the following formula. % Inhibition=(Conversionmax−Conversionsample)/(Conversionmax−Conversionmin)*100 • Conversionmax means the conversion rate in the positive well without addition of compound • Conversionmin means the conversion rate in the well without addition of enzyme • Conversionsample means the conversion rate of test compounds The dose-response (percent inhibition) curve was plotted and IC50 values were determined by GraphPad software.

[2] = biological target: T2, JAK2 (Homo sapiens, UniProt O60674); test: JAK2 microfluidic kinase assay (Caliper EZ Reader II, FAM labeled peptide substrate)
T2 construct: purchased Carna Biosciences
Description: as §1

[3] = biological target: T3, JAK1 (Homo sapiens, UniProt P23458); test: JAK1 microfluidic kinase assay (Caliper EZ Reader II, FAM labeled peptide substrate); details: IC50 JAK1 (5 nM) (1 m MATP), JAK1 5 nM, 1 mM ATP
T3 construct: purchased Carna Biosciences
Description: as §1

[4] = IC50 JAK2 ([…]) (1 mM ATP), 1 mM ATP

T1 sequence (O60674 whole entry V617F): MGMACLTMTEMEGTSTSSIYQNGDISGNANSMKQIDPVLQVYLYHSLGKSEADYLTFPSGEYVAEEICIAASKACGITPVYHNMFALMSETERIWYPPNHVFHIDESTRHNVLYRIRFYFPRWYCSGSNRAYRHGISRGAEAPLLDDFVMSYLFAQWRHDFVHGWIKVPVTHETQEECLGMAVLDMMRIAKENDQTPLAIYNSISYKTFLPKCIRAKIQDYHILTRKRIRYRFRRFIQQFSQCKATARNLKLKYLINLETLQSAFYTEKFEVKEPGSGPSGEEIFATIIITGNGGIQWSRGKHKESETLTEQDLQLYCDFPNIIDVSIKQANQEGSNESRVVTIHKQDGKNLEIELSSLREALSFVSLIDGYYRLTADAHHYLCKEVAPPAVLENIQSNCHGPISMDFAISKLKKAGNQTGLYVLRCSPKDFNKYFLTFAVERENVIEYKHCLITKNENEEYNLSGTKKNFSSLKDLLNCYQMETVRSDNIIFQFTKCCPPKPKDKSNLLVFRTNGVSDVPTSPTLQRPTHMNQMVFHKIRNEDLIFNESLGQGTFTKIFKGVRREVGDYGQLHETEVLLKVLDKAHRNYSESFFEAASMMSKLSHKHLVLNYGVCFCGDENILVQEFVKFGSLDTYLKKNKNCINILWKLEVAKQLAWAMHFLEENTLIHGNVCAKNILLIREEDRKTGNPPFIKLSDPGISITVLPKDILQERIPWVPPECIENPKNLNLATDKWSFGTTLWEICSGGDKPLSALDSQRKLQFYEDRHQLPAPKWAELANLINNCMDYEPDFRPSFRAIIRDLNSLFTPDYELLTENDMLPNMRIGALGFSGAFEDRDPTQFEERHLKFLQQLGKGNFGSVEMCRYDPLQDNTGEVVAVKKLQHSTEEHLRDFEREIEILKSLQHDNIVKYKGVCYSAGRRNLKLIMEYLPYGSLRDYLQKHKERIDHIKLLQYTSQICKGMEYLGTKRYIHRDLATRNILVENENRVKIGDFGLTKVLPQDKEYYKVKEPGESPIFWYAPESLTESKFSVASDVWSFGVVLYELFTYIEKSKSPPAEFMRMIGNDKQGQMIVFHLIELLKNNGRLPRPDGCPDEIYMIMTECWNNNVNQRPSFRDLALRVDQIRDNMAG
T3 sequence (P23458 whole entry): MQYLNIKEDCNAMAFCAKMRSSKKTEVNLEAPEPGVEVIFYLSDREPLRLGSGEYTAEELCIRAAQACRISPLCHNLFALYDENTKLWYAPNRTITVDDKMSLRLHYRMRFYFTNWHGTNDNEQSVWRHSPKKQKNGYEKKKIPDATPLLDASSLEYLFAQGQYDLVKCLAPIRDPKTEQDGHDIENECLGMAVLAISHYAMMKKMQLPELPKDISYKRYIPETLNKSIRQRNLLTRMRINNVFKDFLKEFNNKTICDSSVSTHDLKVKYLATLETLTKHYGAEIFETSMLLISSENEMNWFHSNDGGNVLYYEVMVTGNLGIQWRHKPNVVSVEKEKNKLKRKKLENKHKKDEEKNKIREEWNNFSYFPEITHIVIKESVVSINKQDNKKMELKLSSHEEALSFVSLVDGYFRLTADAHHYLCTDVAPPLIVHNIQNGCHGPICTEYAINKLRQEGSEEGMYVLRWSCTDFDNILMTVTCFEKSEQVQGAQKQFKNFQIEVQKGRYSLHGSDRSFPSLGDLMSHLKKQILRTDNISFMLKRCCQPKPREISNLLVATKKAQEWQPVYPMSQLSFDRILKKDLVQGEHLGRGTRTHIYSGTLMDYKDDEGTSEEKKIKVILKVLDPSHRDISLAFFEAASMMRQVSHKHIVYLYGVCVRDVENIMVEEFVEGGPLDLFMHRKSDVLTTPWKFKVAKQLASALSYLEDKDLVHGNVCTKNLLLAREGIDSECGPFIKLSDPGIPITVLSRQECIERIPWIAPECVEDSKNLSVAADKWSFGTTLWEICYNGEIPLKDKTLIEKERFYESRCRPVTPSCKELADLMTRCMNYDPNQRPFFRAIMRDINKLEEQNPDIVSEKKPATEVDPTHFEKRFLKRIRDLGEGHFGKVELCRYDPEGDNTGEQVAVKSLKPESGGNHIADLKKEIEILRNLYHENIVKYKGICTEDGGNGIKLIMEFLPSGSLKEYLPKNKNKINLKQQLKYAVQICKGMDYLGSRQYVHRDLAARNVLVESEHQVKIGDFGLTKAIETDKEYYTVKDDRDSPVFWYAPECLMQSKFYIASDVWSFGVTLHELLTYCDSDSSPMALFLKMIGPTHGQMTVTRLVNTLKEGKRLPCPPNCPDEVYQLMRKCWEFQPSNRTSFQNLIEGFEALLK
T2 sequence (O60674 whole entry): as the sequence (O60674 whole entry V617F) above, with F617V counted along it

IC50 [1] [nM] | IC50 [2, 4] [nM] | IC50 ([2]; IC50 JAK2 ([…]) (Km ATP), Km ATP) [nM] | IC50 [3] [nM] | SMILES
102 | 44.3 | 1.39 | 20.1 | Cc1cnc(Nc2cnn(C3CC3)c2)nc1-c1ccc(C(=O)NCC2(C#N)CC2)cc1 [Example 93, N-((1-cyanocyclopropyl)methyl)-4-(2-((1-cyclopropyl-1H-pyrazol-4-yl)amino)-5-methylpyrimidin-4-yl)benzamide]
4.91 | 1.21 | – | 14.3 | Cc1cnc(Nc2cnn([C@H]3CC[C@@H](C#N)CC3)c2)nc1-c1ccc(C(=O)NCC(F)(F)F)cc1 [Example 86, 4-(2-((1-(Cis-4-cyanocyclohexyl)-1H-pyrazol-4-yl)amino)-5-methylpyrimidin-4-yl)-N-(2,2,2-trifluoroethyl)benzamide]
71.6 | 41.3 | – | 34.8 | C[C@H](C#N)NC(=O)c1ccc(-c2nc(Nc3cnn(C4CC4)c3)ncc2Cl)cc1 [Example 196, (R)-4-(5-chloro-2-((1-cyclopropyl-1H-pyrazol-4-yl)amino)pyrimidin-4-yl)-N-(1-cyanoethyl)benzamide]
17.6 | 3.14 | – | 4.08 | CCCn1cc(Nc2ncc(Cl)c(-c3ccc(C(=O)N[C@@H](C)C#N)cc3)n2)cn1 [Example 227, (S)-4-(5-Chloro-2-((1-propyl-1H-pyrazol-4-yl)amino)pyrimidin-4-yl)-N-(1-cyanoethyl)benzamide]
10.1 | < 0.25 | – | 4.78 | Cc1cnc(Nc2cnn(C3CCCCC3)c2)nc1-c1ccc(C(=O)N[C@@H](C)C#N)cc1 [Example 89, (S)—N-(1-cyanoethyl)-4-(2-((1-cyclohexyl-1H-pyrazol-4-yl)amino)-5-methylpyrimidin-4-yl)benzamide]
84.2 | – | – | 51.5 | Cc1cnc(Nc2cnn(C3CCOCC3)c2)nc1-c1ccc(C(=O)N[C@H](C)C#N)cc1 [Example 96, (R)—N-(1-cyanoethyl)-4-(5-methyl-2-((1-(tetrahydro-2H-pyran-4-yl)-1H-pyrazol-4-yl)amino)pyrimidin-4-yl)benzamide]
283 | – | – | 235 | N#CCNC(=O)c1ccc(-c2nc(Nc3cnn(C4CCOCC4)c3)ncc2C(F)(F)F)cc1 [Example 153, N-(cyanomethyl)-4-(2-((1-(tetrahydro-2H-pyran-4-yl)-1H-pyrazol-4-yl)amino)-5-(trifluoromethyl)pyrimidin-4-yl)benzamide]
842 | – | – | 293 | C[C@H](C#N)NC(=O)c1ccc(-c2nc(Nc3cnn(C4CCN(C)CC4)c3)ncc2F)cc1 [Example 63, (R)—N-(1-Cyanoethyl)-4-(5-fluoro-2-((1-(1-methylpiperidin-4-yl)-1H-pyrazol-4-yl)amino)pyrimidin-4-yl)benzamide]
27.6 | – | – | 4.14 | Cc1cnc(Nc2cnn(C3CC3)c2)nc1-c1ccc(C(=O)N[C@H](C#N)C(C)C)cc1 [Example 197, (S)—N-(1-Cyano-2-methylpropyl)-4-(2-((1-cyclopropyl-1H-pyrazol-4-yl)amino)-5-methylpyrimidin-4-yl)benzamide]
34.6 | – | – | 13.7 | Cc1cnc(Nc2cnn([C@H]3CC[C@@H](C#N)CC3)c2)nc1-c1ccc(C(=O)NCC#N)cc1 [Example 148, 4-(2-((1-(Cis-4-cyanocyclohexyl)-1H-pyrazol-4-yl)amino)-5-methylpyrimidin-4-yl)-N-(cyanomethyl)benzamide]
6.93 | – | – | 7.47 | Cc1cnc(Nc2cnn(C3CCOCC3)c2)nc1-c1ccc(C(=O)NCC(F)(F)F)cc1 [Example 76, 4-(5-Methyl-2-((1-(tetrahydro-2H-pyran-4-yl)-1H-pyrazol-4-yl)amino)pyrimidin-4-yl)-N-(2,2,2-trifluoroethyl)benzamide]
4.18 | – | – | 14.4 | Cc1cnc(Nc2cnn(C3CCN(C(=O)C4(O)CC4)CC3)c2)nc1-c1ccc(C(=O)NCC#N)cc1 [Example 74, N-(cyanomethyl)-4-(2-((1-(1-(1-hydroxycyclopropanecarbonyl)piperidin-4-yl)-1H-pyrazol-4-yl)amino)-5-methylpyrimidin-4-yl)benzamide]
42.6 | – | – | 1.5 | CC[C@@H](C#N)NC(=O)c1ccc(-c2nc(Nc3cnn(C4CC4)c3)ncc2C)cc1 [Example 193, (S)—N-(1-cyanopropyl)-4-(2-((1-cyclopropyl-1H-pyrazol-4-yl)amino)-5-methylpyrimidin-4-yl)benzamide]
30.5 | – | – | 15 | Cc1cnc(Nc2cnn([C@H]3CC[C@@H](C#N)CC3)c2)nc1-c1ccc(C(=O)N[C@@H](C)C#N)cc1 [Example 149, 4-(2-((1-(Cis-4-cyanocyclohexyl)-1H-pyrazol-4-yl)amino)-5-methylpyrimidin-4-yl)-N—((S)-1-cyanoethyl)benzamide]
21.9 | – | – | 14.3 | Cc1cnc(Nc2cnn(C3C[C@H]4CC[C@@H](C3)O4)c2)nc1-c1ccc(C(=O)NCC#N)cc1 (stereo partly drawn) [Example 69, 4-(2-((1-((1R,5S)-8-oxabicyclo[3.2.1]octan-3-yl)-1H-pyrazol-4-yl)amino)-5-methylpyrimidin-4-yl)-N-(cyanomethyl)benzamide]
3.06 | – | – | 5.02 | CC[C@@H](C#N)NC(=O)c1ccc(-c2nc(Nc3cnn(C4CCOCC4)c3)ncc2Cl)cc1 [Example 203, (S)-4-(5-chloro-2-((1-(tetrahydro-2H-pyran-4-yl)-1H-pyrazol-4-yl)amino)pyrimidin-4-yl)-N-(1-cyanopropyl)benzamide]
3.03 | – | – | 2.22 | CC[C@@H](C#N)NC(=O)c1ccc(-c2nc(Nc3cnn(C4CCOCC4)c3)ncc2C)cc1 [Example 201, (S)—N-(1-cyanopropyl)-4-(5-methyl-2-((1-(tetrahydro-2H-pyran-4-yl)-1H-pyrazol-4-yl)amino)pyrimidin-4-yl)benzamide]
556 | – | – | 152 | N#CCNC(=O)c1ccc(-c2nc(Nc3cnn(C4CC4)c3)ncc2C(F)F)cc1 [Example 110, N-(cyanomethyl)-4-(2-((1-cyclopropyl-1H-pyrazol-4-yl)amino)-5-(difluoromethyl)pyrimidin-4-yl)benzamide]
23.9 | – | – | 2.97 | CCC[C@@H](C#N)NC(=O)c1ccc(-c2nc(Nc3cnn(C4CC4)c3)ncc2C)cc1 [Example 202, (S)—N-(1-cyanobutyl)-4-(2-((1-cyclopropyl-1H-pyrazol-4-yl)amino)-5-methylpyrimidin-4-yl)benzamide]
4.54 | – | – | 27.2 | Cc1cnc(Nc2cnn(C3CC4CCC(C3)N4C(=O)C3(C)CC3)c2)nc1-c1ccc(C(=O)NCC#N)cc1 [Example 65, N-(cyanomethyl)-4-(5-methyl-2-((1-((1R,3r,5S)-8-(1-methylcyclopropanecarbonyl)-8-azabicyclo[3.2.1]octan-3-yl)-1H-pyrazol-4-yl)amino)pyrimidin-4-yl)benzamide]
13.2 | – | – | 11.1 | Cc1cnc(Nc2cnn(C3CCC(F)(F)CC3)c2)nc1-c1ccc(C(=O)NCC#N)cc1 [Example 84, N-(cyanomethyl)-4-(2-((1-(4,4-difluorocyclohexyl)-1H-pyrazol-4-yl)amino)-5-methylpyrimidin-4-yl)benzamide]
52.6 | – | – | 167 | CC(C)(C)C(=O)N1CCC(n2cc(Nc3ncc(F)c(-c4ccc(C(=O)NCC#N)cc4)n3)cn2)CC1 [Example 56, N-(cyanomethyl)-4-(5-fluoro-2-((1-(1-pivaloylpiperidin-4-yl)-1H-pyrazol-4-yl)amino)pyrimidin-4-yl)benzamide]
40.9 | – | – | 33.7 | Cc1cnc(Nc2cnn(C3CC4CCC(C3)N4C(=O)C3CC3)c2)nc1-c1ccc(C(=O)NCC#N)cc1 [Example 64, N-(cyanomethyl)-4-(2-((1-((1R,3r,5S)-8-(cyclopropanecarbonyl)-8-azabicyclo[3.2.1]octan-3-yl)-1H-pyrazol-4-yl)amino)-5-methylpyrimidin-4-yl)benzamide]
19.9 | – | – | 10.8 | Cc1cnc(Nc2cnn([C@H]3CC[C@H](C#N)CC3)c2)nc1-c1ccc(C(=O)NCC#N)cc1 [Example 147, 4-(2-((1-(Trans-4-cyanocyclohexyl)-1H-pyrazol-4-yl)amino)-5-methylpyrimidin-4-yl)-N-(cyanomethyl)benzamide]
14.1 | – | – | 13.5 | N#CCNC(=O)c1ccc(-c2nc(Nc3cnn(C4CCOCC4)c3)ncc2Cl)cc1 [Example 146, 4-(5-chloro-2-((1-(tetrahydro-2H-pyran-4-yl)-1H-pyrazol-4-yl)amino)pyrimidin-4-yl)-N-(cyanomethyl)benzamide]
76.3 | – | – | 43.5 | Cc1cnc(Nc2cnn(C3CCOCC3)c2)nc1-c1ccc(C(=O)NCCC(F)(F)F)cc1 [Example 77, 4-(5-Methyl-2-((1-(tetrahydro-2H-pyran-4-yl)-1H-pyrazol-4-yl)amino)pyrimidin-4-yl)-N-(3,3,3-trifluoropropyl)benzamide]

Source: patent publication US12595253B2, “Benzamides of pyrazolylamino-pyrimidinyl derivatives, and compositions and methods thereof” (LYNK PHARMACEUTICALS CO. LTD., priority 2019, dated 2026)
